Source: patent publication US20070128217A1 (priority 2003, published 2007)

Assays:
[1] = system: antibodies in sera from SARS patients (sera 1a, 1b, 2, 6, 37, 62, London, SARS-yellow, SARS-green); type: binding, human; set-up: Binding of serum 6 to linear peptides of protein X1 of SARS-CoV Urbani / Binding of serum 37 to linear peptides of protein X1 of SARS-CoV Urbani / Binding of serum 6 to looped/cyclic peptide (PEPSCAN-ELISA) / Binding of serum 37 to looped/cyclic peptide (PEPSCAN-ELISA) / Binding of serum 37 to looped/cyclic peptides of protein X1 of SARS-CoV Urbani / Binding of serum 6 to linear peptides of protein X2 / Binding of serum 37 to linear peptides of protein X2 / Binding of serum 37 to looped/cyclic peptides of protein X2 of SARS-CoV Urbani / Binding of serum 6 to linear peptides of protein M of SARS-CoV Urbani / Binding of serum 37 to linear peptides of protein M of SARS-CoV Urbani / Binding of serum 6 to looped/cyclic peptides of protein M of SARS-CoV Urbani / Binding of serum 37 to looped/cyclic peptides of protein M of SARS-CoV Urbani / Binding of serum 6 to linear peptides of protein X3 of SARS-CoV Urbani / Binding of serum 37 to linear peptides of protein X3 of SARS-CoV Urbani / Binding of serum 37 to looped/cyclic peptides of protein X3 of SARS-CoV Urbani / Binding of serum 6 to linear peptides of protein X4 of SARS-CoV Urbani / Binding of serum 37 to linear peptides of protein X4 of SARS-CoV Urbani / Binding of serum 37 to looped/cyclic peptides of protein X4 of SARS-CoV Urbani / Binding of serum 6 to linear peptides of protein X5 of SARS-CoV Urbani / Binding of serum 37 to linear peptides of protein X5 of SARS-CoV Urbani / Binding of serum 37 to looped/cyclic peptides of protein X5 of SARS-CoV Urbani / Binding of serum 6 to linear peptides of protein N of SARS-CoV Urbani / Binding of serum 37 to linear peptides of protein N of SARS-CoV Urbani / Binding of serum 6 to linear peptide (PEPSCAN-ELISA) / Binding of serum 1a to looped/cyclic peptides of protein N of SARS-CoV Urbani / Binding of serum 1b to looped/cyclic peptides of protein N of SARS-CoV Urbani / Binding of serum 2 to looped/cyclic peptides of protein N of SARS-CoV Urbani / Binding of serum 6 to looped/cyclic peptides of protein N of SARS-CoV Urbani / Binding of serum 37 to looped/cyclic peptides of protein N of SARS-CoV Urbani / Binding of serum 62 to looped/cyclic peptides of protein N of SARS-CoV Urbani / Binding of serum London to looped/cyclic peptides of protein N of SARS-CoV Urbani / Binding of serum SARS-green to looped/cyclic peptides of protein N of SARS-CoV Urbani: unit not given here
[2] = system: control sera (pooled serum of ten healthy LUMC hospital workers; commercial negative donor pooled serum from the Dutch bloodbank); type: binding, human; set-up: Binding of Control serum LUMC to linear peptides / Binding of Control serum Blood-bank to linear peptides / Binding of Control serum LUMC to looped peptides / Binding of Control Serum Blood-Bank to Looped peptides / Binding of Control serum LUMC to linear peptides of the protein M of SARS-CoV Urbani / Binding of Control serum Blood-bank to linear peptides of the protein M of SARS-CoV Urbani / Binding of Control serum LUMC to looped peptides of the protein M of SARS-CoV Urbani / Binding of Control Serum Blood-Bank to Looped peptides of the protein M of SARS-CoV Urbani: unit not given here
[3] = system: rabbit serum obtained by immunizing a rabbit with the SARS-CoV strain Frankfurt 1; type: binding; set-up: Binding of a rabbit serum to linear peptides / Binding of a rabbit serum to looped peptides / Rabbit serum linear peptides / Rabbit serum looped peptides / Binding of a rabbit serum to linear peptides of protein N of SARS-CoV Urbani (Rabbit serum linear peptides) / Binding of a rabbit serum to looped/cyclic peptides of protein N of SARS-CoV Urbani (Rabbit serum looped peptides): unit not given here

FQVTIAEILIIIMRT
0.3: Binding of serum 1b to linear peptides of protein X3 of SARS-CoV Urbani [1] | Binding of serum 6 to looped/cyclic peptides of protein X3 of SARS-CoV Urbani [1] | Binding of serum 37 to linear peptides of protein X3 of SARS-CoV Urbani [1] | Rabbit serum looped peptides [3]
0.8: Binding of Control serum Blood-bank to linear peptides of the protein X3 of SARS-CoV Urbani [2]
0.5: Binding of serum 1a to looped/cyclic peptides of protein X3 of SARS-CoV Urbani [1] | Binding of serum 2 to looped/cyclic peptides of protein X3 of SARS-CoV Urbani [1] | Binding of serum 62 to linear peptides of protein X3 of SARS-CoV Urbani [1] | Binding of serum SARS-green to linear peptides of protein X3 of SARS-CoV Urbani [1]
0.2: Binding of serum 1b to looped/cyclic peptides of protein X3 of SARS-CoV Urbani [1] | Binding of serum London to looped/cyclic peptides of protein X3 of SARS-CoV Urbani [1] | Binding of serum SARS-green to looped/cyclic peptides of protein X3 of SARS-CoV Urbani [1] | Rabbit serum linear peptides [3]
1.1: Binding of serum SARS-yellow to linear peptides of protein X3 of SARS-CoV Urbani [1]
0.4: Binding of serum 62 to looped/cyclic peptides of protein X3 of SARS-CoV Urbani [1] | Binding of Control serum LUMC to linear peptides of the protein X3 of SARS-CoV Urbani [2]
0.7: Binding of serum 1a to linear peptides of protein X3 of SARS-CoV Urbani [1] | Binding of serum London to linear peptides of protein X3 of SARS-CoV Urbani [1] | Binding of Control Serum Blood-Bank to Looped peptides of the protein X3 of SARS-CoV Urbani [2]
0.6: Binding of serum 2 to linear peptides of protein X3 of SARS-CoV Urbani [1] | Binding of serum 6 to linear peptides of protein X3 of SARS-CoV Urbani [1] | Binding of serum 37 to looped/cyclic peptides of protein X3 of SARS-CoV Urbani [1] | Binding of serum SARS-yellow to looped/cyclic peptides of protein X3 of SARS-CoV Urbani [1] | Binding of Control serum LUMC to looped peptides of the protein X3 of SARS-CoV Urbani [2]

FVLAAVYRINWVTGG
0.0: Rabbit serum looped peptides [3]
0.6: Binding of serum 1b to looped/cyclic peptides of protein M of SARS-CoV Urbani [1] | Binding of serum 2 to linear peptides of protein M of SARS-CoV Urbani [1] | Binding of serum 62 to looped/cyclic peptides of protein M of SARS-CoV Urbani [1] | Binding of Control Serum Blood-Bank to Looped peptides of the protein M of SARS-CoV Urbani [2]
0.5: Binding of serum 2 to looped/cyclic peptides of protein M of SARS-CoV Urbani [1] | Binding of serum 37 to looped/cyclic peptides of protein M of SARS-CoV Urbani [1] | Binding of Control serum LUMC to linear peptides of the protein M of SARS-CoV Urbani [2] | Rabbit serum linear peptides [3]
0.4: Binding of serum SARS-yellow to looped/cyclic peptides of protein M of SARS-CoV Urbani [1]
0.8: Binding of serum 6 to looped/cyclic peptides of protein M of SARS-CoV Urbani [1] | Binding of serum 37 to linear peptides of protein M of SARS-CoV Urbani [1] | Binding of serum 62 to linear peptides of protein M of SARS-CoV Urbani [1] | Binding of Control serum Blood-bank to linear peptides of the protein M of SARS-CoV Urbani [2] | Binding of Control serum LUMC to looped peptides of the protein M of SARS-CoV Urbani [2]
0.1: Binding of serum SARS-yellow to linear peptides of protein M of SARS-CoV Urbani [1]
0.7: Binding of serum 1a to looped/cyclic peptides of protein M of SARS-CoV Urbani [1] | Binding of serum 1b to linear peptides of protein M of SARS-CoV Urbani [1]
0.9: Binding of serum 1a to linear peptides of protein M of SARS-CoV Urbani [1]
0.3: Binding of serum 6 to linear peptides of protein M of SARS-CoV Urbani [1] | Binding of serum London to linear peptides of protein M of SARS-CoV Urbani [1] | Binding of serum London to looped/cyclic peptides of protein M of SARS-CoV Urbani [1] | Binding of serum SARS-green to linear peptides of protein M of SARS-CoV Urbani [1] | Binding of serum SARS-green to looped/cyclic peptides of protein M of SARS-CoV Urbani [1]

GFAAYNRYRIGNYKL
0.5: Binding of serum 37 to linear peptides of protein M of SARS-CoV Urbani [1] | Binding of serum 62 to linear peptides of protein M of SARS-CoV Urbani [1] | Binding of serum 62 to looped/cyclic peptides of protein M of SARS-CoV Urbani [1] | Binding of serum SARS-yellow to looped/cyclic peptides of protein M of SARS-CoV Urbani [1] | Binding of Control Serum Blood-Bank to Looped peptides of the protein M of SARS-CoV Urbani [2] | Rabbit serum looped peptides [3]
0.6: Binding of serum 1a to linear peptides of protein M of SARS-CoV Urbani [1] | Binding of serum 2 to looped/cyclic peptides of protein M of SARS-CoV Urbani [1] | Binding of serum 37 to looped/cyclic peptides of protein M of SARS-CoV Urbani [1] | Binding of Control serum LUMC to looped peptides of the protein M of SARS-CoV Urbani [2]
0.3: Binding of serum SARS-green to linear peptides of protein M of SARS-CoV Urbani [1]
0.8: Binding of serum 6 to linear peptides of protein M of SARS-CoV Urbani [1] | Binding of Control serum LUMC to linear peptides of the protein M of SARS-CoV Urbani [2]
0.1: Binding of serum SARS-yellow to linear peptides of protein M of SARS-CoV Urbani [1]
0.4: Binding of serum 1b to linear peptides of protein M of SARS-CoV Urbani [1] | Binding of serum 2 to linear peptides of protein M of SARS-CoV Urbani [1] | Binding of serum London to linear peptides of protein M of SARS-CoV Urbani [1]
0.7: Binding of serum 1a to looped/cyclic peptides of protein M of SARS-CoV Urbani [1] | Binding of serum 6 to looped/cyclic peptides of protein M of SARS-CoV Urbani [1] | Binding of Control serum Blood-bank to linear peptides of the protein M of SARS-CoV Urbani [2]
0.2: Binding of serum 1b to looped/cyclic peptides of protein M of SARS-CoV Urbani [1] | Binding of serum London to looped/cyclic peptides of protein M of SARS-CoV Urbani [1] | Binding of serum SARS-green to looped/cyclic peptides of protein M of SARS-CoV Urbani [1] | Rabbit serum linear peptides [3]

GFLFLAWIMLLQFAY
0.4: Binding of serum SARS-yellow to looped/cyclic peptides of protein M of SARS-CoV Urbani [1] | Rabbit serum looped peptides [3]
0.6: Binding of serum 1a to looped/cyclic peptides of protein M of SARS-CoV Urbani [1] | Binding of serum 1b to looped/cyclic peptides of protein M of SARS-CoV Urbani [1] | Binding of serum 6 to looped/cyclic peptides of protein M of SARS-CoV Urbani [1] | Binding of serum 37 to looped/cyclic peptides of protein M of SARS-CoV Urbani [1] | Binding of serum 62 to looped/cyclic peptides of protein M of SARS-CoV Urbani [1] | Binding of Control Serum Blood-Bank to Looped peptides of the protein M of SARS-CoV Urbani [2]
0.0: Binding of serum SARS-yellow to linear peptides of protein M of SARS-CoV Urbani [1]
0.7: Binding of serum 1a to linear peptides of protein M of SARS-CoV Urbani [1] | Binding of serum 37 to linear peptides of protein M of SARS-CoV Urbani [1] | Binding of serum 62 to linear peptides of protein M of SARS-CoV Urbani [1] | Binding of Control serum Blood-bank to linear peptides of the protein M of SARS-CoV Urbani [2] | Binding of Control serum LUMC to looped peptides of the protein M of SARS-CoV Urbani [2]
0.3: Binding of serum 6 to linear peptides of protein M of SARS-CoV Urbani [1] | Binding of serum London to linear peptides of protein M of SARS-CoV Urbani [1] | Binding of serum SARS-green to looped/cyclic peptides of protein M of SARS-CoV Urbani [1] | Binding of Control serum LUMC to linear peptides of the protein M of SARS-CoV Urbani [2] | Rabbit serum linear peptides [3]
0.5: Binding of serum 1b to linear peptides of protein M of SARS-CoV Urbani [1] | Binding of serum 2 to linear peptides of protein M of SARS-CoV Urbani [1] | Binding of serum 2 to looped/cyclic peptides of protein M of SARS-CoV Urbani [1]
0.2: Binding of serum London to looped/cyclic peptides of protein M of SARS-CoV Urbani [1] | Binding of serum SARS-green to linear peptides of protein M of SARS-CoV Urbani [1]

GGALIARCWYLHEGH
0.5: Binding of Control serum Blood-bank to linear peptides [2] | Rabbit serum linear peptides [3] | Rabbit serum looped peptides [3]
0.3: Binding of serum London to looped/cyclic peptides of protein X5 of SARS-CoV Urbani [1] | Binding of serum SARS-yellow to linear peptides of protein X5 of SARS-CoV Urbani [1] | Binding of serum SARS-yellow to looped/cyclic peptides of protein X5 of SARS-CoV Urbani [1]
0.8: Binding of serum 1a to linear peptides of protein X5 of SARS-CoV Urbani [1] | Binding of serum 6 to linear peptides of protein X5 of SARS-CoV Urbani [1] | Binding of serum 62 to linear peptides of protein X5 of SARS-CoV Urbani [1]
0.6: Binding of serum 1b to looped/cyclic peptides of protein X5 of SARS-CoV Urbani [1] | Binding of serum 2 to linear peptides of protein X5 of SARS-CoV Urbani [1] | Binding of serum 2 to looped/cyclic peptides of protein X5 of SARS-CoV Urbani [1] | Binding of Control Serum Blood-Bank to Looped peptides [2] | Binding of Control serum LUMC to looped peptides [2]
0.7: Binding of serum 1a to looped/cyclic peptides of protein X5 of SARS-CoV Urbani [1] | Binding of serum 1b to linear peptides of protein X5 of SARS-CoV Urbani [1] | Binding of serum 37 to linear peptides of protein X5 of SARS-CoV Urbani [1] | Binding of serum 37 to looped/cyclic peptides of protein X5 of SARS-CoV Urbani [1] | Binding of serum 62 to looped/cyclic peptides of protein X5 of SARS-CoV Urbani [1] | Binding of serum London to linear peptides of protein X5 of SARS-CoV Urbani [1] | Binding of serum SARS-green to linear peptides of protein X5 of SARS-CoV Urbani [1] | Binding of serum SARS-green to looped/cyclic peptides of protein X5 of SARS-CoV Urbani [1]
0.4: Binding of serum 6 to looped/cyclic peptides of protein X5 of SARS-CoV Urbani [1] | Binding of Control serum LUMC to linear peptides [2]
